Test results: patent publication US20250073234A1, “COMBINATION THERAPIES INCLUDING PARP1 INHIBITORS” (Cornell University, priority 2022, published 2025)

Legend:
WPMY-1 cells [1] = assay: ATAC-seq chromatin accessibility in WPMY-1 cells; format: cell-based, human; settings: lactate-treated WPMY-1 cells, 48 h
Protocol: The cell pellet was resuspended in 50 μl lysis buffer and then spun down 500×g for 10 minutes at 4° C. The nuclei pellet was resuspended into 50 μl transposition reaction mixture containing Tn5 transposase from Nextera DNA Library Prep Kit (Illumina) and incubated at 37° C. for 30 minutes. Then the transposase-associated DNA was purified using MinElute PCR purification kit (QIAGEN). To amplify the library, the DNA was first amplified for 5 cycles using indexing primer from Nextera kit and NEBNext High-Fidelity 2×PCR master mix. To reduce the PCR amplification bias, 5 μl of amplified DNA after the first 5 cycles was used to do qPCR of 20 cycles to decide the number of cycles for the second round of PCR. Usually, the maximum cycle of the second round of PCR is 5 cycles. Then the total amplified DNA was size selected to fragments less than 800 bp using SPRI beads. Quantification of the ATAC-seq library was done with QuBit. The size of the pooled library was examined by TapeStation. Barcoded ATAC-seq libraries were pooled and paired end sequenced (sX75) on the Illumina NextSeq 500 using the High output V2.5 kit (Illumina Inc., San Diego, CA).
Peaks were annotated with ChipSeeker R package. […].

AP-1 = assay: AP-1-driven luciferase reporter in WPMY-1 cells; format: cell-based, human; settings: lactate 48 h
WPMY-1 cells [2] = assay: Intracellular NAD levels in WPMY-1 cells; format: cell-based, human; settings: stromal fibroblasts treated with lactate vs untreated
Protocol: Quantification was carried out using the NAD/NADH quantification colorimetric kit (Cat. No. MAK037, Sigma) according to the manufacturer's protocol. At least three independent measurements were carried out.

PARP-1 = assay: Poly(ADP-ribosyl)ation in WPMY-1 cells (immunoblot, immunoprecipitation); format: cell-based, human
Protocol: Cells for protein analysis were lysed in RIPA buffer (20 mM Tris-HCl, […], 2 mM EDTA, 1% Triton-X, 10% glycerol, 0.1% SDS, and 0.5% sodium deoxycholate) with phosphatase and protease inhibitors. For immunoprecipitations, cells were lysed in IP lysis buffer (100 mM NaCl, 25 mM Tris, 1% Triton-X, 10% glycerol, with phosphatase and protease inhibitors) and immunoprecipitated with 25 μl of 50% slurry of protein […] beads (Bioworld). Immunoprecipitates were washed three times with lysis buffer, once with high salt (500 mM NaCl), and once more with lysis buffer. Protein concentration in lysates was determined by using Protein Assay Kit (Bio-Rad). Cell extracts and immunoprecipitated proteins were denatured, subjected to SDS-PAGE, transferred to PVDF membranes (GE Healthcare). After blocking with 5% nonfat dry milk in Tris-buffered saline and 0.1% Tween (TBS-T), the membranes were incubated with the specific antibodies (as listed in Key Resources Table) overnight at 4° C. After 2 hours incubation with the appropriate horseradish peroxidase-conjugated antibodies, the immune complexes were detected by chemiluminescence (Thermo Scientific) or Near-infrared fluorescence (LI-COR).

PC3 cells [3] = assay: Trans-well migration and invasion of PC3 cells co-cultured with pre-treated WPMY-1 cells; format: cell-based, human; settings: Olaparib 10 μM + PEGPH20 2.5 μg/ml, basal and ADT
Protocol: For co-culture migration and invasion assays, 8×10^4 WPMY-1 cells were plated onto the lower chamber of a 24 well plate in DMEN containing 10% FBS (basal conditions) or 10% charcoal stripped FBS (ADT conditions) and vehicle (DMSO) or Olaparib 10 μM or Olaparib 10 μM+PEGPH20 2.5 μg/ml for 48 hours. 5×10^4 PC3 were seeded in a transwell chamber (Corning Biocoat control inserts) or in a transwell invasion chamber (Corning BioCoat Matrigel Invasion Chambers), both with 8 μm membrane. PC3 were allowed to migrate or invade for 20 hours at 37° C., 5% CO2. Cells were fixed in cold methanol and stained with crystal violet.

PC3 cells [4] = assay: Click-iT EdU proliferation of PC3 cells treated with CM from WPMY-1 cells; format: cell-based, human; settings: Olaparib 10 μM + PEGPH20 2.5 μg/ml or CM incubation with Galunisertib 10 μM
Protocol: WPMY-1 cells were cultured in DMEN containing 10% FBS (basal conditions) or 10% charcoal stripped FBS (ADT conditions), then the cells were treated with vehicle (DMSO), Olaparib 10 μM, Olaparib 10 μM+PEGPH20 2.5 μg/ml for 96 hours, refreshing media and stimuli at 48 hours, conditioned media (CM) was generated by collecting supernatant on day 4. PC3 cells were seeded in a black-walled well (Thermo Fisher) and serum starved overnight. CM from WPMY-1 cells was added to PC3 for 24 h. PC3 were exposed to EdU incorporation for the last 2 hours. Proliferating cells were detected using Click-iT EdU Alexa fluor 488 (Thermo Fisher) following the manufacturer's instructions. Pictures were taken using EVOS M5000 Imaging System and EdU positive were measured using Fiji (Schindelin et al., 2012).

PC3 + WPMY-1 tumors = assay: Subcutaneous xenograft co-implantation of PC3 and WPMY-1 cells in NSG mice; format: in vivo, mouse; settings: Olaparib 40 mg/Kg + PEGPH20 0.0375 mg/Kg, twice a week, 2 weeks
Protocol: For mouse xenografts using PC3 PCa cells and sgC or sgAP-1 WPMY-1 stromal cells. 7 weeks old NSG mice were surgical castrated and let androgen levels drop for 10 days. Cells were trypsinized washed two times in PBS and resuspend in DMEN. 1×10^6 PC3 and 1×10^6 sgC or sgAP1-A WPMY-1 for each mouse were resuspended in 100 μl DMEM: Matrigel (1:1) and injected subcutaneously into both flanks of immunocompromised NSG mice (PC3+sgC WPMY-1 n=4; PC3+sgAP-1 WPMY-1 n=4). Tumors were allowed to grow for 1 month. Mice were euthanized and tumors were collected and analyzed histologically. For Olaparib treatment in mouse xenografts. PC3 PCa cells and WPMY-1 stromal cells were trypsinized washed two times in PBS and resuspend in DMEN. 1×10^6 PC3 and 1×10^6 WPMY-1 for each mouse were resuspended in 100 μl DMEM: Matrigel (1:1) and injected subcutaneously into both flanks of immunocompromised NSG mice. Tumors were allowed to grow for 14 days, and mouse were randomly divided to receive vehicle, n=10, Olaparib (40 mg/kg, 2 days each week, i.p.), n=10 or Olaparib (40 mg/kg, 2 days each week, i.p.)+_PEGPH20 (0.0375 mg/Kg, 2 days each week, retroorbital injection) n=10. Tumors were measured twice a week. Mice were euthanized 14 days after the initiation of the treatment and tumors were collected and analyzed histologically. For Olaparib treatment in mice, 13 weeks-old male TRAMP^+, n=18, were randomly distributed to receive vehicle, n=9, or Olaparib (40 mg/kg/, 5 days each week, i.p.), n=9. Mice were euthanized 1 month after the initiation of the treatment. Prostate and other organs were collected and analyzed histologically.
Tissues from indicated mice were isolated, fixed in zinc buffered formalin overnight at 4° C., dehydrated, and embedded in paraffin. Sections (5 μm) were stained with hematoxylin and eosin (H&E). For immunohistochemistry, sections were deparaffinized, rehydrated, and then treated for antigen retrieval. […] Stained sections were analyzed with a Zeiss light microscope supplemented with Zen 3.3 Bule edition software.

[5] = system: hyaluronan (HA) in WPMY-1 cells; assay: Immunofluorescence for HABP (HA deposition) in WPMY-1 cells; format: cell-based, human; settings: Olaparib 10 μM + PEGPH20 2.5 μg/ml, 96 h, basal and ADT
Protocol: WPMY-1 cells were seeded in coverslides and cultured in DMEN containing 10% FBS (basal conditions) or 10% charcoal stripped FBS (ADT conditions), then the cells were treated with vehicle (DMSO), Olaparib 10 μM, Olaparib 10 μM+PEGPH20 2.5 μg/ml for 96 hours, refreshing media and stimuli at 48 hours. Cells were fixed in PFA 4% for 20 minutes at room temperature, permeabilize and blocked following abcam's immunofluorescence protocol. Then, cells were incubated overnight with Hyaluronic acid binding protein (HABP) at 4° C. Cells were incubated with Alexa conjugated streptavidin and mounted in slides with mowiol. Pictures were taken by Zeiss LSM 710 NLO Confocal Microscope.

[6] = system: metastatic pancreas cancer; settings: cited from earlier work

Molecule	chromatin accessibility (WPMY-1 cells [1])	AP-1-driven luciferase reporter activity (AP-1)	NAD+ levels (WPMY-1 cells [2])	poly(ADP-ribosyl)ation of c-JUN and c-FOS (PARP-1; lactate 48 h, immunoprecipitation)	total poly(ADP-ribosyl)ation levels (PARP-1; lactate-treated WPMY-1 cells)	Olaparib-enhanced migration of PC3 cells (PC3 cells [3])	Olaparib-induced proliferation (EdU) (PC3 cells [4])	anti-tumor activity of the combination (tumor volume) (PC3 + WPMY-1 tumors)	HA deposition in response to Olaparib [5]	primary endpoint of phase 3 trial [6]
CC(O)C(=O)O (stereo not shown) [lactate]	widespread decrease in chromatin accessibility	repressed an AP-1-driven luciferase reporter	lower than in untreated cells	impaired the poly(ADP-ribosyl) ation of c-JUN and c-FOS	reduced total poly(ADP-ribosyl) ation levels	–	–	–	–	–
PEGPH20: PEGylated Recombinant Human Hyaluronidase, clinical-grade recombinant hyaluronidase (provided by Halozyme Therapeutics) (protein, UniProt P38567 36-490, looked up, PEGylated) Hyaluronidase PH-20: LNFRAPPVIPNVPFLWAWNAPSEFCLGKFDEPLDMSLFSFIGSPRINATGQGVTIFYVDRLGYYPYIDSITGVTVNGGIPQKISLQDHLDKAKKDITFYMPVDNLGMAVIDWEEWRPTWARNWKPKDVYKNRSIELVQQQNVQLSLTEATEKAKQEFEKAGKDFLVETIKLGKLLRPNHLWGYYLFPDCYNHHYKKPGYNGSCFNVEIKRNDDLSWLWNESTALYPSIYLNTQQSPVAATLYVRNRVREAIRVSKIPDAKSPLPVFAYTRIVFTDQVLKFLSQDELVYTFGETVALGASGIVIWGTLSIMRSMKSCLLLDNYMETILNPYIINVTLAAKMCSQVLCQEQGVCIRKNWNSSDYLHLNPDNFAIQLEKGGKFTVRGKPTLEDLEQFSEKFYCSCYSTLSCKEKADVKDTDAVDVCIADGVCIDAFLKPPMETEEPQIFYNASPSTLS	–	–	–	–	–	completely blocked the enhanced migration of PC3 cells	blocked Olaparib-induced proliferation in stromal cells	enhanced Olaparib anti-tumor activity	efficiently degraded HA deposition	failed to meet the primary endpoint
